From the kinase profiling compilation of Christmann-Franck et al. (2016)

What was measured:
Assay in all cases: Caliper, Mobility shift assay off-chip
[1] = target: AURKB (human) (UniProt Q96GD4)
[2] = target: BRSK2 (human) (UniProt Q8IWQ3)
[3] = target: CAMK4 (human) (UniProt Q16566)
[4] = target: CDK9 (human) (UniProt P50750)
[5] = target: CHUK (human) (UniProt O15111)
[6] = target: EEF2K (human) (UniProt O00418)
[7] = target: EPHA1 (human) (UniProt P21709)
[8] = target: FGFR2 (human) (UniProt P21802)
[9] = target: FGFR3 (human) (UniProt P22607)
[10] = target: HIPK1 (human) (UniProt Q86Z02)
[11] = target: IGF1R (human) (UniProt P08069)
[12] = target: ITK (human) (UniProt Q08881)
[13] = target: JAK2 JH1 JH2 (human) (UniProt O60674)
[14] = target: JAK3 JH1 JH2 (human) (UniProt P52333)
[15] = target: KIT (human) (UniProt P10721)
[16] = target: MAPK1 (human) (UniProt P28482)
MAPK1 (human), sequence (P28482 whole entry, looked up): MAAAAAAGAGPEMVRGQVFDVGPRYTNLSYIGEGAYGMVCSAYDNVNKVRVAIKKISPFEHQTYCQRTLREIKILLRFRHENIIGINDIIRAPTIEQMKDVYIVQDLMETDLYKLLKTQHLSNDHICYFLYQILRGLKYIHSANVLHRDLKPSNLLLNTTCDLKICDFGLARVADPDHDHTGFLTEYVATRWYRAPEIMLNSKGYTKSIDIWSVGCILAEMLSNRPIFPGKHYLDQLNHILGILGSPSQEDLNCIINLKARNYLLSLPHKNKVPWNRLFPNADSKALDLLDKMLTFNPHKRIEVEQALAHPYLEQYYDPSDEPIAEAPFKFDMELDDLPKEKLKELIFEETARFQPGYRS

[17] = target: MAPK12 (human) (UniProt P53778)
[18] = target: MAPKAPK2 (human) (UniProt P49137)
[19] = target: MELK (human) (UniProt Q14680)
[20] = target: NTRK1 (human) (UniProt P04629)
NTRK1 (human), sequence (P04629 whole entry, looked up): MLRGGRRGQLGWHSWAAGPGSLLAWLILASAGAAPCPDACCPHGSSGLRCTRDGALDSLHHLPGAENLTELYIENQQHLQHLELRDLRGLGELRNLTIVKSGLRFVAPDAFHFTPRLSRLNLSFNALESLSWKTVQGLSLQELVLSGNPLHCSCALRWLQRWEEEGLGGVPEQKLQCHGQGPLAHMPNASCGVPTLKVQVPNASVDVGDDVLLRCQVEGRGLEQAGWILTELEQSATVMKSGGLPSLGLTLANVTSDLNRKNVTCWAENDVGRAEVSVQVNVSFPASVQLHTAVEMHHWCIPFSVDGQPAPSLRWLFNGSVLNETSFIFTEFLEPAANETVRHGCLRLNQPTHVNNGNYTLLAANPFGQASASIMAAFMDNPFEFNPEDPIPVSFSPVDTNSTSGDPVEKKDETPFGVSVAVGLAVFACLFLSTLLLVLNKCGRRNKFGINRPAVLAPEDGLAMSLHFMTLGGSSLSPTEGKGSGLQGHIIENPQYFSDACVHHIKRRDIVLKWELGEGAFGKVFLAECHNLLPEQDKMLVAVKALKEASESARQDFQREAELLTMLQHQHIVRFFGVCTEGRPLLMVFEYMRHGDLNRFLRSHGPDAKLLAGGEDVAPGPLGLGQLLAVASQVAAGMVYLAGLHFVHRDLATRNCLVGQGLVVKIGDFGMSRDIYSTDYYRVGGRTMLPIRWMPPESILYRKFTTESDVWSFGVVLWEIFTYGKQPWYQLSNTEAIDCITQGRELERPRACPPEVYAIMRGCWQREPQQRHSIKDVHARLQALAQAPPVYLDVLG

[21] = target: PBK (human) (UniProt Q96KB5)
[22] = target: PIM3 (human) (UniProt Q86V86)
[23] = target: PTK2B (human) (UniProt Q14289)
PTK2B (human), sequence (Q14289 whole entry, looked up): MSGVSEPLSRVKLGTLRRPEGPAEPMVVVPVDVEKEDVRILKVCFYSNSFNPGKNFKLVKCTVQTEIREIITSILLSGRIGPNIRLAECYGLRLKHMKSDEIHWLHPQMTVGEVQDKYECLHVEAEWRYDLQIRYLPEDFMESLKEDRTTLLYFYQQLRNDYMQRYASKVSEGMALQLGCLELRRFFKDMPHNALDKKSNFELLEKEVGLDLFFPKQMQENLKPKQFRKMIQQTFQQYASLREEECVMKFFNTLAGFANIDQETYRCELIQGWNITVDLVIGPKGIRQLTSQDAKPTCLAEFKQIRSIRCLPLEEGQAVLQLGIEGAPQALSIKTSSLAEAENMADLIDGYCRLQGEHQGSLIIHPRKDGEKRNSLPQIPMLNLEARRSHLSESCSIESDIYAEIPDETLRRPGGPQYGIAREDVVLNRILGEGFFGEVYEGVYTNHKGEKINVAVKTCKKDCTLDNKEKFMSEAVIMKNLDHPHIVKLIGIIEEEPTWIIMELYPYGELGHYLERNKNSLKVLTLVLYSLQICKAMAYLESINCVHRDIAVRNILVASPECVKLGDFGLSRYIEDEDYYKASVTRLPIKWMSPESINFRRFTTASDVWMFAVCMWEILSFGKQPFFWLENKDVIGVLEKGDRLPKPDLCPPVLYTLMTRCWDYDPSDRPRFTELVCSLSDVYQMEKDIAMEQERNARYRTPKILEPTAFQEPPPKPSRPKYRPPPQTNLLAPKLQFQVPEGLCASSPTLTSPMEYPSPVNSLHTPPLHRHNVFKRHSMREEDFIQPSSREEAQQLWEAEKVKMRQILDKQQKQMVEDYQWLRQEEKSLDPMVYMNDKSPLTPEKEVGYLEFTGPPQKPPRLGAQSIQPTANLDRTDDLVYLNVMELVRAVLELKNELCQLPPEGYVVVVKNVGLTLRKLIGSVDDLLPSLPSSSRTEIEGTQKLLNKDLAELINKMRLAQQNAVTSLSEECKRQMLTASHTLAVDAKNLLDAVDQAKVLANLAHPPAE

[24] = target: RPS6KA4 KD1 KD2 (human) (UniProt O75676)
[25] = target: SGK3 (human) (UniProt Q96BR1); conditions: compound 4.0 µM
[26] = target: SIK2 (human) (UniProt Q9H0K1)
[27] = target: SRPK3 (human) (UniProt Q9UPE1)
[28] = target: STK4 (human) (UniProt Q13043)
[29] = target: TAOK2 (human) (UniProt Q9UL54)
[30] = target: TSSK1B (human) (UniProt Q9BXA7)
[31] = target: WNK2 (human) (UniProt Q9Y3S1)
WNK2 (human), sequence (Q9Y3S1 whole entry, looked up): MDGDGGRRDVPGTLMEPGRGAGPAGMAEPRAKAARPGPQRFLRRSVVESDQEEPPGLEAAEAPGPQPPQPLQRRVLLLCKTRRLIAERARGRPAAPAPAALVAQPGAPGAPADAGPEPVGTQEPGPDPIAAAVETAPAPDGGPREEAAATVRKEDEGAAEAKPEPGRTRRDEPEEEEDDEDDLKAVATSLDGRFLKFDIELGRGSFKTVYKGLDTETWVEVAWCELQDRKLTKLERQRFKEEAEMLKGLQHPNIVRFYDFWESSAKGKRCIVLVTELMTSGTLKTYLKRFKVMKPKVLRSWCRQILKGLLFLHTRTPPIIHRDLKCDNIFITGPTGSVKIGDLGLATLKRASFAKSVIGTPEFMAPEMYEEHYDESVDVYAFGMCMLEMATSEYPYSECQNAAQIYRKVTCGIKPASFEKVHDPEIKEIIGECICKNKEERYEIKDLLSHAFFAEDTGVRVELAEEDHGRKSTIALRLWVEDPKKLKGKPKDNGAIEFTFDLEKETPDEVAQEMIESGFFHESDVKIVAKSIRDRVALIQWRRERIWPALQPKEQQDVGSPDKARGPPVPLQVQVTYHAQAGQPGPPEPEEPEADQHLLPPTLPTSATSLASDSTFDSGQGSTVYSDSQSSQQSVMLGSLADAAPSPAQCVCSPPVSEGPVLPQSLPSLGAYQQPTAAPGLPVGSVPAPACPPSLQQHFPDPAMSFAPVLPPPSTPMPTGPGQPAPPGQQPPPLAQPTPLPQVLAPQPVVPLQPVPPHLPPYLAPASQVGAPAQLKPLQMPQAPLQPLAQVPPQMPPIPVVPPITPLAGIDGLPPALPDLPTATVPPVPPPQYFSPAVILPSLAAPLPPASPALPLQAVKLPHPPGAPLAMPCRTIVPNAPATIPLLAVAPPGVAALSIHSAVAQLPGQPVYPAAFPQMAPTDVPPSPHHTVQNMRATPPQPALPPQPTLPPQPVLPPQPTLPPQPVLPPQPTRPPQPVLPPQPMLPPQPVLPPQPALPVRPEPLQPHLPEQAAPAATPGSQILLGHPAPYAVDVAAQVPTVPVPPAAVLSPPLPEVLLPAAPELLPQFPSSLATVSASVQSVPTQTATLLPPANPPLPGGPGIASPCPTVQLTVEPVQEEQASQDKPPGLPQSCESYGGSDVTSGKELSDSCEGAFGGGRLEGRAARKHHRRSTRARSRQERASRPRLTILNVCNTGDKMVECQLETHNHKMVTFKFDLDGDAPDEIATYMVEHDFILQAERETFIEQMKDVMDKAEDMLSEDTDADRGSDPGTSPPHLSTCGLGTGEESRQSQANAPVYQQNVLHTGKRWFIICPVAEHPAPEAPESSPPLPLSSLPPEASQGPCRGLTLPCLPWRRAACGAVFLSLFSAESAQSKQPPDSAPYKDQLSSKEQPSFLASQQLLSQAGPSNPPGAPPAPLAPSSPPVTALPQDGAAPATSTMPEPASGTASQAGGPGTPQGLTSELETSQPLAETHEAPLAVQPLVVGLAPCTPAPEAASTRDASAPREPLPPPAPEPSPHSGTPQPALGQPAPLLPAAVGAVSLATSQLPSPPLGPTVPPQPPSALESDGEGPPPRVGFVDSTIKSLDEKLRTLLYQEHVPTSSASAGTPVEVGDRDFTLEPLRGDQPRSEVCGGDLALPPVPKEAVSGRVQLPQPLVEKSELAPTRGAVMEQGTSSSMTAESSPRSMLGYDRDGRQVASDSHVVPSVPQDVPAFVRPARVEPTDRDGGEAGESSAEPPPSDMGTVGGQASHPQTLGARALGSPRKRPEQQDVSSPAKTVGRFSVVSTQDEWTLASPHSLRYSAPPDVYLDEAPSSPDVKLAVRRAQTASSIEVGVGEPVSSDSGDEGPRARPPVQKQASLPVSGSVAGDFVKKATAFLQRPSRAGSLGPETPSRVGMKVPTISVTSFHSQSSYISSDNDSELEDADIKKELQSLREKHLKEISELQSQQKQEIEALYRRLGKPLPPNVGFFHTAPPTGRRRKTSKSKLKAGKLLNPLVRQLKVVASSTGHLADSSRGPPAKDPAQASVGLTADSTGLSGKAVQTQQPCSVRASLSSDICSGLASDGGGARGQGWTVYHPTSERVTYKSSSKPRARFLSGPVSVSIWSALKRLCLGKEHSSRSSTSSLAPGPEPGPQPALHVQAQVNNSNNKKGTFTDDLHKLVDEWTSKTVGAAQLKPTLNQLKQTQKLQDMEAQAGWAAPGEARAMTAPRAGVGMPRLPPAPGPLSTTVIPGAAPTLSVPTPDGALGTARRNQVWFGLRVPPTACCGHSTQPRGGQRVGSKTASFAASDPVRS

[32] = target: WNK3 (human) (UniProt Q9BYP7)

CAMK4 (human), sequence (Q16566 whole entry, looked up): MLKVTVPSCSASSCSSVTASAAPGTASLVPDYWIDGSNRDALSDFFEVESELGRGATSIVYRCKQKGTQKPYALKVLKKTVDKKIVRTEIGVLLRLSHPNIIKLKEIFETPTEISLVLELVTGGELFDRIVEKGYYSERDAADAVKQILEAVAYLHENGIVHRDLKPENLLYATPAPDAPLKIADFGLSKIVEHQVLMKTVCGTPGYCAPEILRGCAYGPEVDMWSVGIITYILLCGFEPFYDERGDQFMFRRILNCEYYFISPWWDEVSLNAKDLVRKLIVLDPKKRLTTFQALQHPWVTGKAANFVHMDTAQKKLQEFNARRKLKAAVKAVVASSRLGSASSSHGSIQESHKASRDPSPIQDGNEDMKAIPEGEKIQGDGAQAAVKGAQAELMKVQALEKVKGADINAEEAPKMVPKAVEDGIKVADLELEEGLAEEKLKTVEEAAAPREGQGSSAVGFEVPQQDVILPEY

CCN(CC)CCNC(=O)c1c(C)[nH]c(/C=C2\C(=O)Nc3ccc(F)cc32)c1C
inhibition ([1]; compound 0.2 µM): 46%
inhibition ([1]; compound 4.0 µM): 90%
inhibition ([2]; compound 0.2 µM): 36.7%
inhibition ([2]; compound 4.0 µM): 85.9%
inhibition ([3]; compound 0.2 µM): 15.7%
inhibition ([3]; compound 4.0 µM): 80.8%
inhibition ([4]; compound 0.2 µM): -0.1%
inhibition ([4]; compound 4.0 µM): 47.5%
inhibition ([5]; compound 0.2 µM): 3%
inhibition ([5]; compound 4.0 µM): 2.9%
inhibition ([6]; compound 0.2 µM): 2.7%
inhibition ([6]; compound 4.0 µM): 4%
inhibition ([7]; compound 0.2 µM): 8.2%
inhibition ([7]; compound 4.0 µM): 66.9%
inhibition ([8]; compound 0.2 µM): 71.3%
inhibition ([8]; compound 4.0 µM): 99.7%
inhibition ([9]; compound 0.2 µM): 75%
inhibition ([9]; compound 4.0 µM): 98.4%
inhibition ([10]; compound 0.2 µM): 51.3%
inhibition ([10]; compound 4.0 µM): 94.4%
inhibition ([11]; compound 0.2 µM): 40.1%
inhibition ([11]; compound 4.0 µM): 93%
inhibition ([12]; compound 0.2 µM): 93.3%
inhibition ([12]; compound 4.0 µM): 101%
inhibition ([13]; compound 0.2 µM): 36.5%
inhibition ([13]; compound 4.0 µM): 94.6%
inhibition ([14]; compound 0.2 µM): 37.5%
inhibition ([14]; compound 4.0 µM): 96%
inhibition ([15]; compound 0.2 µM): 76.7%
inhibition ([15]; compound 4.0 µM): 100%
inhibition ([16]; compound 0.2 µM): -7.5%
inhibition ([16]; compound 4.0 µM): -1.7%
inhibition ([17]; compound 0.2 µM): -4.2%
inhibition ([17]; compound 4.0 µM): -6.2%
inhibition ([18]; compound 0.2 µM): 4%
inhibition ([18]; compound 4.0 µM): 5.5%
inhibition ([19]; compound 0.2 µM): 80%
inhibition ([19]; compound 4.0 µM): 99.2%
inhibition ([20]; compound 0.2 µM): 99.7%
inhibition ([20]; compound 4.0 µM): 101%
inhibition ([21]; compound 0.2 µM): -6.1%
inhibition ([21]; compound 4.0 µM): -7.6%
inhibition ([22]; compound 0.2 µM): 3.1%
inhibition ([22]; compound 4.0 µM): 42.9%
inhibition ([23]; compound 0.2 µM): 72.4%
inhibition ([23]; compound 4.0 µM): 101%
inhibition ([24]; compound 0.2 µM): 15.5%
inhibition ([24]; compound 4.0 µM): 73.7%
inhibition [25]: 20.6%
inhibition ([26]; compound 0.2 µM): 46.8%
inhibition ([26]; compound 4.0 µM): 94.5%
inhibition ([27]; compound 0.2 µM): 1.1%
inhibition ([27]; compound 4.0 µM): 5.1%
inhibition ([28]; compound 0.2 µM): 92.8%
inhibition ([28]; compound 4.0 µM): 103%
inhibition ([29]; compound 0.2 µM): 3.8%
inhibition ([29]; compound 4.0 µM): 18.6%
inhibition ([30]; compound 0.2 µM): 63.2%
inhibition ([30]; compound 4.0 µM): 95.5%
inhibition ([31]; compound 0.2 µM): 1.7%
inhibition ([31]; compound 4.0 µM): -2.1%
inhibition ([32]; compound 0.2 µM): 1.8%
inhibition ([32]; compound 4.0 µM): 2.4%
